Measured values: patent US20250161245A1, “A MIXTURE OF UREA, BIURET AND N-CONTAINING BY-PRODUCTS CREATED DURING BIURET PRODUCTION AS A DIETARY NON-PROTEIN NITROGEN-SOURCE FOR RUMINANTS AND USES THEREOF” (Yara International ASA, priority 2022, published 2025)

Experiments:
ruminal fluid = assay: in vitro dry and organic matter digestibility, batch culture (Example 4); assay type: cell-based, Angus crossbred steers; details: 24 hours of incubation, corn silage-based diet
Procedure: The in vitro incubations were conducted on three separate days (replicates). A representative sample of digesta was collected from different places in the rumen of ruminally cannulated steers and strained through 4 layers of cheesecloth, placed in pre-warmed thermos containers, and transported to the laboratory within 30 minutes after the collection. In the laboratory, the ruminal fluid from the two steers was maintained under constant CO2-flux and was combined in equal proportions. This combined ruminal fluid was mixed with McDougall's buffer (McDougall, 1948) with and without 0.077 g/liter of 10 wt. % ammonium sulfate enriched with ^15N in relation 1:4, and it was used as an inoculum. Two bottles of 500 ml fitted with a side arm and a rubber septum were incubated per treatment. […] At the end of the 24 hours incubation, the final pH was recorded, the bottles were placed on ice to prevent further microbial fermentation and two 10-ml samples were collected and acidified by adding 20 μl of a 20 vol/vol % of H2SO4-solution and were frozen at minus 20° C. until further analysis. […]
The concentration of ammonia-N at 12 and 24 hours in the incubation fluid was measured after centrifuging at 10,000×g for 15 minutes at 4° C. using an Avanti J-E centrifuge from Beckman Coulter® Incorporated. […]

[1] = animal performance of steers with NPN supplementation (Example 3); assay type: in vivo, crossbred yearling steers

Q: Which IVDMD (ruminal fluid) does the source give for `NC(N)=O` [Urea, urea] here?
A: 45.08%

Q: And the IVOMD (ruminal fluid)?
A: 65.38%

Q: And the ADG ([1]; days 0-14)?
A: 0.78 kg

Q: And the ADG ([1]; days 0-28)?
A: 0.81 kg

Q: What about the ADG ([1]; days 0-42) of the same compound?
A: 1.02 kg
